Measured values taken from ChEMBL document CHEMBL4196079, “Molecular interaction of novel benzothiazolyl triazolium analogues with calf thymus DNA and HSA-their biological investigation as potent antimicrobial agents” (Eur J Med Chem, 2018).
In brackets after ≈: the same amount, converted by molar mass.

tested on: Pichia norvegensis; experiment: Antifungal activity against Candida mycoderma after 24 hrs by NCCLS micro broth dilution method; type: functional; settings: not given

Row | SMILES | MIC [µg/mL]
1 | CCOc1ccc2c(c1)sc1nc(-c3ccccc3)c(COCc3cn(Cc4ccc(F)cc4)nn3)n12 | 8 (≈ 15.6 µM)
2 | CCOc1ccc2c(c1)sc1nc(-c3ccccc3)c(COCc3cn(Cc4ccc(Cl)cc4)nn3)n12 | 16 (≈ 30.2 µM)
3 | O=[N+]([O-])c1ccc(Cn2cc(COCc3c(-c4ccccc4)nc4sc5ccccc5n34)nn2)cc1 | 32 (≈ 64.4 µM)
4 | OC(Cn1cncn1)(Cn1cncn1)c1ccc(F)cc1F [FLUCONAZOLE] | 4 (≈ 13.1 µM)

tested on: Micrococcus luteus; experiment: Antibacterial activity against Micrococcus luteus ATCC 4698 after 24 hrs by micro broth dilution method; type: functional; settings: ATCC 4698, 24 h

Row | SMILES | MIC [µg/mL]
5 | CCOc1ccc2c(c1)sc1nc(-c3ccccc3)c(COCc3cn(Cc4ccc(F)cc4)nn3)n12 | 128 (≈ 249 µM)
6 | CCOc1ccc2c(c1)sc1nc(-c3ccccc3)c(COCc3cn(Cc4ccc(Cl)cc4)nn3)n12 | 32 (≈ 60.4 µM)
7 | O=[N+]([O-])c1ccc(Cn2cc(COCc3c(-c4ccccc4)nc4sc5ccccc5n34)nn2)cc1 | 64 (≈ 129 µM)
8 | CCn1cc(C(=O)O)c(=O)c2cc(F)c(N3CCNCC3)cc21 [NORFLOXACIN] | 2 (≈ 6.26 µM)

tested on: Escherichia coli; experiment: Antibacterial activity against Escherichia coli DH52 after 24 hrs by NCCLS micro broth dilution method; type: functional; settings: DH52, 24 h

Row | SMILES | MIC [µg/mL]
9 | CCOc1ccc2c(c1)sc1nc(-c3ccccc3)c(COCc3cn(Cc4ccc(F)cc4)nn3)n12 | 32 (≈ 62.3 µM)
10 | CCOc1ccc2c(c1)sc1nc(-c3ccccc3)c(COCc3cn(Cc4ccc(Cl)cc4)nn3)n12 | 64 (≈ 121 µM)
11 | O=[N+]([O-])c1ccc(Cn2cc(COCc3c(-c4ccccc4)nc4sc5ccccc5n34)nn2)cc1 | 16 (≈ 32.2 µM)
12 | CCn1cc(C(=O)O)c(=O)c2cc(F)c(N3CCNCC3)cc21 [NORFLOXACIN] | 1 (≈ 3.13 µM)

tested on: Candida albicans; experiment: Antifungal activity against Candida albicans ATCC 76615 after 24 hrs by NCCLS micro broth dilution method; type: functional; settings: ATCC 76615, 24 h

Row | SMILES | MIC [µg/mL]
13 | CCOc1ccc2c(c1)sc1nc(-c3ccccc3)c(COCc3cn(Cc4ccc(F)cc4)nn3)n12 | 8 (≈ 15.6 µM)
14 | CCOc1ccc2c(c1)sc1nc(-c3ccccc3)c(COCc3cn(Cc4ccc(Cl)cc4)nn3)n12 | 32 (≈ 60.4 µM)
15 | O=[N+]([O-])c1ccc(Cn2cc(COCc3c(-c4ccccc4)nc4sc5ccccc5n34)nn2)cc1 | 32 (≈ 64.4 µM)
16 | OC(Cn1cncn1)(Cn1cncn1)c1ccc(F)cc1F [FLUCONAZOLE] | 1 (≈ 3.27 µM)

tested on: Bacillus subtilis; experiment: Antibacterial activity against Bacillus subtilis ATCC 21216 after 24 hrs by NCCLS micro broth dilution method; type: functional; settings: ATCC 21216, 24 h

Row | SMILES | MIC [µg/mL]
17 | CCOc1ccc2c(c1)sc1nc(-c3ccccc3)c(COCc3cn(Cc4ccc(F)cc4)nn3)n12 | 64 (≈ 125 µM)
18 | CCOc1ccc2c(c1)sc1nc(-c3ccccc3)c(COCc3cn(Cc4ccc(Cl)cc4)nn3)n12 | 64 (≈ 121 µM)
19 | O=[N+]([O-])c1ccc(Cn2cc(COCc3c(-c4ccccc4)nc4sc5ccccc5n34)nn2)cc1 | 64 (≈ 129 µM)
20 | CCn1cc(C(=O)O)c(=O)c2cc(F)c(N3CCNCC3)cc21 [NORFLOXACIN] | 4 (≈ 12.5 µM)

tested on: Bacillus; experiment: Antibacterial activity against Bacillus proteus ATCC 13315 after 24 hrs by NCCLS micro broth dilution method; type: functional; settings: ATCC 13315, 24 h

Row | SMILES | MIC [µg/mL]
21 | CCOc1ccc2c(c1)sc1nc(-c3ccccc3)c(COCc3cn(Cc4ccc(F)cc4)nn3)n12 | 64 (≈ 125 µM)
22 | CCOc1ccc2c(c1)sc1nc(-c3ccccc3)c(COCc3cn(Cc4ccc(Cl)cc4)nn3)n12 | 64 (≈ 121 µM)
23 | O=[N+]([O-])c1ccc(Cn2cc(COCc3c(-c4ccccc4)nc4sc5ccccc5n34)nn2)cc1 | 32 (≈ 64.4 µM)
24 | CCn1cc(C(=O)O)c(=O)c2cc(F)c(N3CCNCC3)cc21 [NORFLOXACIN] | 8 (≈ 25.1 µM)

tested on: Cyberlindnera jadinii; experiment: Antifungal activity against Candida utilis after 24 hrs by NCCLS micro broth dilution method; type: functional; settings: Williopsis jadinii

Row | SMILES | MIC [µg/mL]
25 | CCOc1ccc2c(c1)sc1nc(-c3ccccc3)c(COCc3cn(Cc4ccc(F)cc4)nn3)n12 | 16 (≈ 31.2 µM)
26 | CCOc1ccc2c(c1)sc1nc(-c3ccccc3)c(COCc3cn(Cc4ccc(Cl)cc4)nn3)n12 | 64 (≈ 121 µM)
27 | O=[N+]([O-])c1ccc(Cn2cc(COCc3c(-c4ccccc4)nc4sc5ccccc5n34)nn2)cc1 | 32 (≈ 64.4 µM)
28 | OC(Cn1cncn1)(Cn1cncn1)c1ccc(F)cc1F [FLUCONAZOLE] | 8 (≈ 26.1 µM)

tested on: Shigella dysenteriae; experiment: Antibacterial activity against Shigella dysenteriae after 24 hrs by NCCLS micro broth dilution method; type: functional; settings: not given

Row | SMILES | MIC [µg/mL]
29 | CCOc1ccc2c(c1)sc1nc(-c3ccccc3)c(COCc3cn(Cc4ccc(F)cc4)nn3)n12 | 16 (≈ 31.2 µM)
30 | CCOc1ccc2c(c1)sc1nc(-c3ccccc3)c(COCc3cn(Cc4ccc(Cl)cc4)nn3)n12 | 64 (≈ 121 µM)
31 | O=[N+]([O-])c1ccc(Cn2cc(COCc3c(-c4ccccc4)nc4sc5ccccc5n34)nn2)cc1 | 32 (≈ 64.4 µM)
32 | CCn1cc(C(=O)O)c(=O)c2cc(F)c(N3CCNCC3)cc21 [NORFLOXACIN] | 16 (≈ 50.1 µM)

tested on: Saccharomyces cerevisiae; experiment: Antifungal activity against Saccharomyces cerevisiae after 24 hrs by NCCLS micro broth dilution method; type: functional; settings: not given

Row | SMILES | MIC [µg/mL]
33 | CCOc1ccc2c(c1)sc1nc(-c3ccccc3)c(COCc3cn(Cc4ccc(F)cc4)nn3)n12 | 32 (≈ 62.3 µM)
34 | CCOc1ccc2c(c1)sc1nc(-c3ccccc3)c(COCc3cn(Cc4ccc(Cl)cc4)nn3)n12 | 64 (≈ 121 µM)
35 | O=[N+]([O-])c1ccc(Cn2cc(COCc3c(-c4ccccc4)nc4sc5ccccc5n34)nn2)cc1 | 32 (≈ 64.4 µM)
36 | OC(Cn1cncn1)(Cn1cncn1)c1ccc(F)cc1F [FLUCONAZOLE] | 16 (≈ 52.2 µM)

tested on: Staphylococcus aureus; experiment: Antibacterial activity against methicillin-resistant Staphylococcus aureus N315 after 24 hrs by NCCLS micro broth dilution method; type: functional; settings: N315, 24 h

Row | SMILES | MIC [µg/mL]
37 | CCOc1ccc2c(c1)sc1nc(-c3ccccc3)c(COCc3cn(Cc4ccc(F)cc4)nn3)n12 | 128 (≈ 249 µM)
38 | CCOc1ccc2c(c1)sc1nc(-c3ccccc3)c(COCc3cn(Cc4ccc(Cl)cc4)nn3)n12 | 64 (≈ 121 µM)
39 | O=[N+]([O-])c1ccc(Cn2cc(COCc3c(-c4ccccc4)nc4sc5ccccc5n34)nn2)cc1 | 32 (≈ 64.4 µM)
40 | CCn1cc(C(=O)O)c(=O)c2cc(F)c(N3CCNCC3)cc21 [NORFLOXACIN] | 8 (≈ 25.1 µM)

tested on: Salmonella typhi; experiment: Antibacterial activity against Salmonella typhi after 24 hrs by NCCLS micro broth dilution method; type: functional, Salmonella enterica subsp. enterica serovar Typhi; settings: Salmonella enterica

Row | SMILES | MIC [µg/mL]
41 | CCOc1ccc2c(c1)sc1nc(-c3ccccc3)c(COCc3cn(Cc4ccc(F)cc4)nn3)n12 | 32 (≈ 62.3 µM)
42 | CCOc1ccc2c(c1)sc1nc(-c3ccccc3)c(COCc3cn(Cc4ccc(Cl)cc4)nn3)n12 | 64 (≈ 121 µM)
43 | O=[N+]([O-])c1ccc(Cn2cc(COCc3c(-c4ccccc4)nc4sc5ccccc5n34)nn2)cc1 | 8 (≈ 16.1 µM)
44 | CCn1cc(C(=O)O)c(=O)c2cc(F)c(N3CCNCC3)cc21 [NORFLOXACIN] | 4 (≈ 12.5 µM)

tested on: Aspergillus flavus; experiment: Antifungal activity against Aspergillus flavus after 24 hrs by NCCLS micro broth dilution method; type: functional; settings: not given

Row | SMILES | MIC [µg/mL]
45 | CCOc1ccc2c(c1)sc1nc(-c3ccccc3)c(COCc3cn(Cc4ccc(F)cc4)nn3)n12 | 64 (≈ 125 µM)
46 | CCOc1ccc2c(c1)sc1nc(-c3ccccc3)c(COCc3cn(Cc4ccc(Cl)cc4)nn3)n12 | 128 (≈ 241 µM)
47 | O=[N+]([O-])c1ccc(Cn2cc(COCc3c(-c4ccccc4)nc4sc5ccccc5n34)nn2)cc1 | 256 (≈ 516 µM)
48 | OC(Cn1cncn1)(Cn1cncn1)c1ccc(F)cc1F [FLUCONAZOLE] | 256 (≈ 836 µM)

tested on: Staphylococcus aureus; experiment: Antibacterial activity against Staphylococcus aureus ATCC 25923 after 24 hrs by NCCLS micro broth dilution method; type: functional; settings: ATCC 25923, 24 h

Row | SMILES | MIC [µg/mL]
49 | CCOc1ccc2c(c1)sc1nc(-c3ccccc3)c(COCc3cn(Cc4ccc(F)cc4)nn3)n12 | 128 (≈ 249 µM)
50 | CCOc1ccc2c(c1)sc1nc(-c3ccccc3)c(COCc3cn(Cc4ccc(Cl)cc4)nn3)n12 | 64 (≈ 121 µM)
51 | O=[N+]([O-])c1ccc(Cn2cc(COCc3c(-c4ccccc4)nc4sc5ccccc5n34)nn2)cc1 | 32 (≈ 64.4 µM)
52 | CCn1cc(C(=O)O)c(=O)c2cc(F)c(N3CCNCC3)cc21 [NORFLOXACIN] | 2 (≈ 6.26 µM)

tested on: Escherichia coli; experiment: Antibacterial activity against Escherichia coli JM109 after 24 hrs by NCCLS micro broth dilution method; type: functional; settings: JM109, 24 h

Row | SMILES | MIC [µg/mL]
53 | CCOc1ccc2c(c1)sc1nc(-c3ccccc3)c(COCc3cn(Cc4ccc(F)cc4)nn3)n12 | 64 (≈ 125 µM)
54 | CCOc1ccc2c(c1)sc1nc(-c3ccccc3)c(COCc3cn(Cc4ccc(Cl)cc4)nn3)n12 | 64 (≈ 121 µM)
55 | O=[N+]([O-])c1ccc(Cn2cc(COCc3c(-c4ccccc4)nc4sc5ccccc5n34)nn2)cc1 | 4 (≈ 8.06 µM)
56 | CCn1cc(C(=O)O)c(=O)c2cc(F)c(N3CCNCC3)cc21 [NORFLOXACIN] | 1 (≈ 3.13 µM)

tested on: Pseudomonas aeruginosa; experiment: Antibacterial activity against Pseudomonas aeruginosa ATCC 27853 after 24 hrs by NCCLS micro broth dilution method; type: functional; settings: ATCC 27853, 24 h

Row | SMILES | MIC [µg/mL]
57 | CCOc1ccc2c(c1)sc1nc(-c3ccccc3)c(COCc3cn(Cc4ccc(F)cc4)nn3)n12 | 64 (≈ 125 µM)
58 | CCOc1ccc2c(c1)sc1nc(-c3ccccc3)c(COCc3cn(Cc4ccc(Cl)cc4)nn3)n12 | 32 (≈ 60.4 µM)
59 | O=[N+]([O-])c1ccc(Cn2cc(COCc3c(-c4ccccc4)nc4sc5ccccc5n34)nn2)cc1 | 64 (≈ 129 µM)
60 | CCn1cc(C(=O)O)c(=O)c2cc(F)c(N3CCNCC3)cc21 [NORFLOXACIN] | 16 (≈ 50.1 µM)
